Measurements: patent publication US11952384B2, “Anti-tumor compound and preparation method and use thereof” (DUALITY BIOLOGICS (SUZHOU) CO., LTD., priority 2020, dated 2024)
Where two headings read alike, the source gives them in different places. Blank lines part the entries; values can stand above or below the compound they belong to.

Experiments:
[1] = system: JIMT-1 cells; experiment: Inhibition of in vitro proliferation of tumor cells by compounds (CTG, 6 days); assay type: cell-based
Procedure: (§1) To test the inhibitory activity of the pharmaceutical compounds on the in vitro proliferation of NCI-N87, JIMT-1 and MBA-MB-231 tumor cells. The cells were treated with the compounds at different concentrations in vitro, and after 6 days of culture, the proliferation of cells was detected using the CTG (CellTiter-Glo® Luminescent Cell Viability Assay, Promega, Cat. No. G7558) reagent, and the in vitro activity of the compounds was evaluated according to the IC50 value.
(§2) In the following, the test for the inhibition of the in vitro proliferation of NCI-N87 cells was taken as an example to illustrate the method of the present application for testing the inhibitory activity of the compounds of the present application on the in vitro proliferation of tumor cells. The method was also applicable to, but not limited to, the test for the inhibitory activity on the in vitro proliferation of other tumor cells. • 1. Culturing of cells: NCI-N87 cells were cultured in RPMI-1640 medium containing 10% FBS. • 2. Preparation of cells: NCI-N87 cells in logarithmic phase were taken, washed with PBS once, and digested with 2-3 mL of trypsin for 2-3 min. After the cells were digested completely, 10-15 mL of cell culture was added to elute the digested cells. The eluate was centrifuged at 1000 rpm for 5 min, and the supernatant was discarded. The resulting cells were resuspended in 10-20 mL of cell culture to obtain a single cell suspension. • 3. Cell plating: the NCI-N87 single cell suspension was mixed well and adjusted to a viable cell density of 6×10^4 cells/mL with cell culture. The cell suspension with the adjusted density was mixed well and added to a 96-well cell culture plate at 50 μL/well. The culture plate was incubated in an incubator for 18 h (37° C., 5% CO2). • 4. Preparation of compounds: the compounds were dissolved in DMSO to obtain stock solutions at an initial concentration of 10 mM. There were 8 concentrations in total for the small molecule compounds: 300 nM, 100 nM, 30 nM, 10 nM, 3 nM, 1 nM, 0.3 nM, and 0.1 nM. • 5. Sample adding: the prepared samples to be detected at different concentrations were added to the culture plate, and two duplicate wells were set for each sample. The culture plate was incubated in an incubator for 6 days (37° C., 5% CO2). • 6. Color developing: the 96-well cell culture plate was taken out, added with the CTG reagent at 50 μL/well, and incubated at room temperature for 10 min. • 7. Plate reading: the 96-well cell culture plate was taken out, placed in a microplate reader, and measured for the chemiluminescence using the microplate reader. Data Analysis
(§3) Data were processed and analyzed using Microsoft Excel and Graphpad Prism 5.
(§4) To test the inhibitory activity of the pharmaceutical compounds on the in vitro proliferation of NCI-N87, JIMT-1 and MBA-MB-231 tumor cells. The cells were treated with compounds at different concentrations in vitro, and after 6 days of culture, the proliferation of cells was detected using CTG (CellTiter-Glo® Luminescent Cell Viability Assay, Promega, Cat. No. G7558) reagents, and the in vitro activity of the compounds was evaluated according to the IC50 value. • 1. Culturing of cells: NCI-N87/JIMT-1/MBA-MB-231 cells were cultured in RPMI-1640 medium containing 10% FBS. • 2. Preparation of cells: NCI-N87/JIMT-1/MBA-MB-231 cells in logarithmic phase were taken, washed with PBS once, and digested with 2-3 mL of trypsin for 2-3 min. After the cells were digested completely, 10-15 mL of cell culture was added to elute the digested cells. The eluate was centrifuged at 1000 rpm for 5 min, and the supernatant was discarded. The resulting cells were resuspended in 10-20 mL of cell culture to obtain a single cell suspension. • 3. Cell plating: the NCI-N87/JIMT-1/MBA-MB-231 single cell suspension was mixed well and adjusted to a viable cell density of 6×10^4 cells/mL with cell culture. […]

[2] = system: NCI-N87 cells; experiment: as above; assay type: cell-based; conditions: Homo sapiens, NCI-N87, 144 h, read-out: NCI-N87 IC50 (nM)
Procedure: as §1, §2, §3, §4

[3] = biological target: T1, BCRP (Homo sapiens, UniProt Q9UNQ0); experiment: in vitro; conditions: for efflux ratio at 2 h: Caco-2; for Papp A→B at 2 h: Caco-2, Papp (A-B) (10^−6, cm/s); for Papp B→A at 2 h: Caco-2, Papp (B-A) (10^−6, cm/s)
T1 sequence (Q9UNQ0 1-655): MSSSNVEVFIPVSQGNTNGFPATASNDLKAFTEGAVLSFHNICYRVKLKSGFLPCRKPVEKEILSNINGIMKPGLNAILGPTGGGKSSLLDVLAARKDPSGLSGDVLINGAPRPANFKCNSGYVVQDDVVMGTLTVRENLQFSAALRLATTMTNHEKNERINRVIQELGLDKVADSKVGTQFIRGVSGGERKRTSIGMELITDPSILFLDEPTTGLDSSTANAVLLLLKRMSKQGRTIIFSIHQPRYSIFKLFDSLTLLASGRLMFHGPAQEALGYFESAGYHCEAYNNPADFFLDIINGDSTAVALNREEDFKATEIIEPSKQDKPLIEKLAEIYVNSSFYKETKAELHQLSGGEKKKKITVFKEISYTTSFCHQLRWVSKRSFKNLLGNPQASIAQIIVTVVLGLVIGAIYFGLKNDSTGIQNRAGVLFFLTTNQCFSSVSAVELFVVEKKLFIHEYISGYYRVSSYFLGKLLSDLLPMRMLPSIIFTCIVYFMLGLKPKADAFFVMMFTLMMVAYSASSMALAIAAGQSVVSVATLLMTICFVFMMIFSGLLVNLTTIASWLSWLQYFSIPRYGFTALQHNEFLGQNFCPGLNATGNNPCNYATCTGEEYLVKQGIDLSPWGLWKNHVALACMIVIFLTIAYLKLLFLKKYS
Procedure: (§5) To investigate whether the compounds of the present invention is a substrate for efflux transporters P-gp and BCRP in a Caco-2 cell model, thereby providing preclinical basis for analyzing the drug-drug interaction in pharmacokinetics.
(§6) • 1) Cell culture medium was added to each well of the Transwell. The HTS Transwell plate was incubated under conditions of 37° C. and 5% CO2 for 1 h prior to cell inoculation. • 2) Caco-2 cells were diluted with culture medium and the cell suspension was dispensed into filter wells of the 96-well HTS Transwell plate. […] The cell culture medium was changed periodically. • 3) Monolayer cell resistance was measured using the Millicell Epithelial Volt-Ohm detection system. The resistance of each well was recorded. After all wells were measured, the Transwell plate was put back into the incubator. TEER of each well was calculated according to the formula. The TEER value of each well should be greater than 230 ohm·cm^2. […] Preparation for Transporter Test • 1) The Caco-2 plate was taken out from the incubator. The monolayer cells were washed with pre-heated HBSS twice. The plate was then incubated at 37° C. for 30 min. • 2) Stock solutions of the compounds were prepared in DMSO and diluted with HBSS to obtain working solutions. Digoxin was used as a reference substrate for P-gp and rosuvastatin was used as a reference substrate for BCRP. Propranolol was used as a high permeability marker. • 3) The working solution (without inhibitor) was added to the Transwell insert (apical compartment) to determine the rate of drug transport in the apical to basolateral direction. The transfer buffer was added to the wells in the receiver plate (basolateral compartment). The working solution (without inhibitor) was added to the receiver plate wells (basolateral compartment) to determine the rate of drug transport in the basolateral to apical direction. The Transwell insert (apical compartment) was filled with the transport buffer. PSC833 was added to the apical and basolateral compartments to determine the rate of drug transport in the presence of P-gp inhibitors. • 4) The sample was transferred from the working solution to the quenching solution, and a sample with a time of 0 was prepared. The Transwell plate was incubated under conditions of 37° C. and 5% CO2 for 2 h. • 5) At the end of the transport cycle, the samples were transferred from the apical and basolateral wells into a new 96-well plate. Cold acetonitrile or methanol containing the appropriate internal standard (IS) was added to each well of the plate. The plate was vortexed for 10 min. The samples were centrifuged. The supernatant of an aliquot was mixed with an appropriate amount of ultrapure water (depending on the LC-MS/MS signal response and peak shape) prior to the LC-MS/MS analysis. • 6) The stock solution of lucifer yellow in DMSO was prepared and diluted with HBSS to determine the amount of lucifer yellow leakage after a 2-hour transport period. The lucifer yellow solution was added to the apical compartment. HBSS was added to the basolateral compartment. The plate was incubated at 37° C. for 30 min, and a certain amount of the solution was directly taken from the apical and basolateral wells and transferred to a new 96-well plate. The lucifer yellow fluorescence was measured in a fluorescence plate reader with 485 nm excitation and 530 nm emission (to monitor monolayer integrity).
(§7) Data were calculated using Microsoft Excel. The percentage of the compound remaining at each time point was estimated by determining the peak area ratio from the extracted ion chromatogram.
(§8) For drug transport analysis in the Caco-2 cell model, the apparent permeability coefficient (Papp) can be calculated according to the following formula, in cm/s:
(§9) [formula] • wherein the concentration C is in nM, the volume V is in μL, the time T is in s, and the area S is in cm^2.
(§10) The recovery rate is calculated according to the following formula:

[4] = biological target: T1, BCRP
Procedure: as §5, §6, §7, §8, §9, §10

[5] = biological target: T1, BCRP; experiment: Study on transporter substrates in Caco-2 cell model; conditions: human, Caco-2
Procedure: as §5, §6, §7, §8, §9, §10

[6] = Homo sapiens, JIMT-1, 144 h, read-out: JIMT-1 IC50 (nM)

SMILES: CC[C@@]1(O)C(=O)OCc2c1cc1n(c2=O)Cc2c-1nc1cc(F)c(C)c3c1c2[C@@H](NC(=O)C1CCCC(O)C1)CC3 (stereo partly drawn) [P-II-22, N-((1S,9S)-9-ethyl-5-fluoro-9-hydroxy-4-methyl-10,13-dioxo-2,3,9,10,13,15-hexahydro-1H,12H-benzo[de]pyrano[3′,4′:6,7]indolizino[1,2-b]quinolin-1-yl)-3-hydroxycyclohexane-1-carboxamide]
IC50 [1, 6]: 3.2 nM

SMILES: CC[C@@]1(O)C(=O)OCc2c1cc1n(c2=O)Cc2c-1nc1cc(F)c(C)c3c1c2[C@@H](NC(=O)CCS)CC3 [P-III-2, N-((1S,9S)-9-ethyl-5-fluoro-9-hydroxy-4-methyl-10,13-dioxo-2,3,9,10,13,15-hexahydro-1H,12H-benzo[de]pyrano[3′,4′:6,7]indolizino[1,2-b]quinolin-1-yl)-3-mercaptopropanamide]
IC50 [2]: 108 nM | IC50 [1, 6]: 108 nM

SMILES: CC[C@@]1(O)C(=O)OCc2c1cc1n(c2=O)Cc2c-1nc1cc(F)c(C)c3c1c2[C@@H](NC(=O)CC(=O)CO)CC3 [P-III-22, N-((1S,9S)-9-ethyl-5-fluoro-9-hydroxy-4-methyl-10,13-dioxo-2,3,9,10,13,15-hexahydro-1H,12H-benzo[de]pyrano[3′,4′:6,7]indolizino[1,2-b]quinolin-1-yl)-4-hydroxy-3-oxobutanamide]
IC50 [1, 6]: 12.5 nM

SMILES: CCCC(O)CC(=O)N[C@H]1CCc2c(C)c(F)cc3nc4c(c1c23)Cn1c-4cc2c(c1=O)COC(=O)[C@]2(O)CC (stereo partly drawn) [P-III-27, N-((1S,9S)-9-ethyl-5-fluoro-9-hydroxy-4-methyl-10,13-dioxo-2,3,9,10,13,15-hexahydro-1H,12H-benzo[de]pyrano[3′,4′:6,7]indolizino[1,2-b]quinolin-1-yl)-3-hydroxyhexanamide]
IC50 [2]: 3 nM

efflux ratio at 2 h [3]: 1.09 | Papp A→B at 2 h [3]: 17.3 ×10⁻⁶ cm/s | Papp B→A at 2 h [3]: 18.9 ×10⁻⁶ cm/s | recovery at 2 h ([3]; Caco-2, Recovery rate (%) AP-BL): 62.2% | recovery at 2 h ([3]; Caco-2, Recovery rate (%) BL-AP): 82.4% | BCRP substrate ([4]; Caco-2): No
SMILES: CC(C)NCC(O)COc1cccc2ccccc12 (centres unmarked) [Propranolol]

efflux ratio at 2 h [3]: 81.2 | Papp A→B at 2 h [3]: 0.12 ×10⁻⁶ cm/s | Papp B→A at 2 h [3]: 9.52 ×10⁻⁶ cm/s | recovery at 2 h ([5]; Caco-2, Recovery rate (%) AP-BL, KO143 −): 98.5% | recovery at 2 h ([5]; Caco-2, Recovery rate (%) BL-AP, KO143 −): 96.8% | recovery at 2 h ([5]; Caco-2, with KO143 (concentration not stated), Recovery rate (%) AP-BL, KO143 +): 95.8% | recovery at 2 h ([5]; Caco-2, with KO143 (concentration not stated), Recovery rate (%) BL-AP, KO143 +): 97.1% | BCRP substrate ([4]; Caco-2): Yes | Papp (A-B) (10^−6, cm/s) ([4]; Caco-2): 0.45 10^−6, cm/s | Papp (B-A) (10^−6, cm/s) ([4]; Caco-2): 3.15 10^−6, cm/s | Efflux ratio ([4]; human, Caco-2, 2 h): 6.96
SMILES: CC(C)c1nc(N(C)S(C)(=O)=O)nc(-c2ccc(F)cc2)c1/C=C/[C@@H](O)C[C@@H](O)CC(=O)O [Rosuvastatin, rosuvastatin, reference compound]

SMILES: CC[C@@]1(O)C(=O)OCc2c1cc1n(c2=O)Cc2c-1nc1cc(F)c(C)c3c1c2[C@@H](NC(=O)C1(O)CCC1)CC3 [compound 1, N-((1S,9S)-9-ethyl-5-fluoro-9-hydroxy-4-methyl-10,13-dioxo-2,3,9,10,13,15-hexahydro-1H,12H-benzo[de]pyrano[3′,4′:6,7]indolizino[1,2-b]quinolin-1-yl)-1-hydroxycyclobutane-1-carboxamide, reference compound]
IC50 ([1]; Homo sapiens, JIMT-1, 144 h, Table 2 (untitled), Test Example 2.2, small molecule fragments, 6 days of culture, CTG, read-out: JIMT-1 IC50): 23.1 nM

SMILES: CC[C@@]1(O)C(=O)OCc2c1cc1n(c2=O)Cc2c-1nc1cc(F)c(C)c3c1c2[C@@H](NC(=O)CCN)CC3 [compound 2, N-((1S,9S)-9-ethyl-5-fluoro-9-hydroxy-4-methyl-10,13-dioxo-2,3,9,10,13,15-hexahydro-1H,12H-benzo[de]pyrano[3′,4′:6,7]indolino[1,2-b]quinolin-1-yl)-3-aminopropionamide, reference compound]
IC50 ([1]; Table 3, Test Example 2.3, small molecule fragments, 6 days of culture, CTG, read-out: JIMT-1 IC50): 36.2 nM

SMILES: CC[C@@]1(O)C(=O)OCc2c1cc1n(c2=O)Cc2c-1nc1cc(F)c(C)c3c1c2[C@@H](NC(=O)CCO)CC3 [compound 3, N-((1S,9S)-9-ethyl-5-fluoro-9-hydroxy-4-methyl-10,13-dioxo-2,3,9,10,13,15-hexahydro-1H,12H-benzo[de]pyrano[3′,4′:6,7]indolizino[1,2-b]quinolin-1-yl)-3-hydroxypropanamide, reference compound]
IC50 ([1]; Homo sapiens, JIMT-1, 144 h, Table 3, Test Example 2.3, small molecule fragments, 6 days of culture, CTG, read-out: JIMT-1 IC50): 81.2 nM

SMILES: CC[C@@]1(O)C(=O)OCc2c1cc1n(c2=O)Cc2c-1nc1cc(F)c(C)c3c1c2[C@@H](NC(=O)C(C)C(C)O)CC3 (stereo partly drawn) [compound 4, N-((1S,9S)-9-ethyl-5-fluoro-9-hydroxy-4-methyl-10,13-dioxo-2,3,9,10,13,15-hexahydro-1H,12H-benzo[de]pyrano[3′,4′:6,7]indolizino[1,2-b]quinolin-1-yl)-3-hydroxy-2-methylbutanamide, reference compound]
IC50 [1, 6]: 32.3 nM
